According to patent publication US20100016275A1, “NOVEL COMPOUND 395” (priority 2008, published 2010):
Where two headings read alike, the source gives them in different places.

How the values were obtained:
[1] = Measurement of plasma protein binding (PPB) by equilibrium dialysis; format: in vitro ADME, human; settings: human, plasma, pH 7.4, human plasma, equilibrium dialysis, 37° C., pH 7.4; read-out: Human plasma protein binding PPB (% free)
Protocol: (§1) Measurement of Plasma Protein Binding (PPB)
(§2) The extent of binding of a drug to plasma proteins is a crucial factor in determining its in vivo potency and pharmacokinetics. The method used for determining the extent of plasma protein binding involves equilibrium dialysis of the compound between plasma and buffer at 37° C. The concentrations of compound in the plasma and buffer are then determined using high pressure liquid chromatography (HPLC) with mass spectroscopy (MS) detection. The dialysis method involves the use of mixtures of up to 10 compounds simultaneously. It has been shown that at the concentrations used in the assay, there is no significant difference in the results when compounds are run singly or in mixtures.
(§3) Membranes (molecular weight cut-off 5000) were first prepared by soaking in the dialysis buffer for a minimum of 1 hour. The dialysis membranes were then mounted into the dialysis cells.
(§4) Stock solutions of compounds in dimethylsulphoxide (DMSO) were prepared. This, and all subsequent liquid handling steps, were normally done using a Tecan liquid handling robot. Mixtures of up to five compounds were used. The concentration of each compound in a mixture was normally 1 mM. The mixtures were chosen such that each mixture contains compounds that all have at least a 5 unit difference in molecular weight from one another.
(§5) Frozen plasma (EDTA anticoagulant) was normally used for the human plasma binding experiment. The pH of the plasma was adjusted to 7.4 using 1 M HCl immediately before use.
(§6) The stock DMSO solution of compounds (7.5 μL) was then added to the dialysis cells along with plasma (750 μl). This was done in duplicate for each mixture. This gave a 1% DMSO in plasma solution with each compound at a concentration of 10 μM (if the stock solution was the standard 1 mM). The dialysis cells were then sealed, secured in a Dianorm rotator unit and equilibrated for 18 hours at 37° C. While the dialysis cells were being equilibrated, the DMSO stock solutions were used for generating optimised HPLC/MS methods for use in the final analysis of the plasma and buffer samples.
(§7) After equilibration, the cells were opened and a Tecan liquid handling robot was used to remove aliquots from the plasma and buffer sides of each of the dialysis cells. Blank plasma was then added to the buffer samples and buffer added to the plasma samples such that each sample was in a matrix of 6-fold diluted plasma. Standards were then prepared from the DMSO stock solutions and blank 6-fold diluted plasma. The concentrations of the four standards were normally 50 nM, 150 nM, 500 nM and 2500 nM.
(§8) The samples and standards were then analysed using HPLC with MS detection, which allows deconvolution of the mixtures of compounds. The HPLC method involved a forward flushing column switching technique that allows direct injection of the diluted plasma.
(§9) The chromatograms were processed using MassLynx software that automatically i 5 calculates a calibration curve for each compound in a mixture and then interpolates the concentrations of buffer and plasma samples. These concentrations still need corrections for the dilution of the plasma. The percentage bound was calculated from the MassLynx data using the following equation: […]
(§10) The factor of 1.2 in the numerator accounts for the small dilution of the aqueous samples with plasma. The factor of 6 in the denominator serves to correct for the 6-fold dilution of the plasma samples with buffer.
(§11) The % free (100-% bound) for each compound was calculated from the concentration data, and then recorded.

[2] = Human hepatic intrinsic clearance (CLint) assay in human hepatocytes; format: in vitro ADME; settings: human, human hepatocytes in suspension, pH 7.4, human hepatocytes
Source text: The hepatic metabolic component of human clearance is predicted from scaled in vitro intrinsic clearance (CLint) data from human hepatocytes (see Chem Biol Interact. 2007, 168(1), 2-15) and from the extent of human blood binding, primarily due to plasma protein binding. The well stirred model of the liver is a model for predicting blood clearance in the liver from intrinsic clearance (CLint) determined using hepatocytes. (see Drug Metab Dispos. 2005, 33(9), 1304-11) The model is usually written as:
Human Hepatic Intrinsic Clearance (CLint) Assay
For the majority of drugs, a large component of their plasma clearance is contributed by hepatic metabolism. Intrinsic clearance (CLint) is a measure of the potential of a compound to undergo metabolism and can be related to hepatic clearance in vivo from a consideration of plasma protein binding and liver blood flow. Therefore, CLint may be used as an index of the relative metabolic stability of compounds within a project and compared with other external probe substrates. Furthermore, the measurement of CLint in vitro within a research project, where hepatic metabolic clearance is known to be an issue, may be a useful means of understanding the different pharmacokinetic behaviour of the compounds in vivo.
This following description outlines a method for estimating intrinsic clearance (CLint) from human hepatocyte incubations using suspension buffer containing no HSA (human serum albumin) and maintaining physiological conditions of pH 7.4.
Hepatocytes were prepared by a two-step in situ collagenase perfusion method of a portion of the human liver, suspended in protein free buffer (see below) and stored on ice, prior to incubation.
This method is based on the procedure of Seglen (Preparation of rat liver cells. I. Effect of Ca^2+ on enzymatic dispersion of isolated, perfused liver. Exptl. Cell Res., 1972, 74, p450 and preparation of isolated rat liver cells. Methods Cell Biol., 1976, 13, p 29) which itself was developed from the one step procedure of Berry and Friend (High-yield preparation of isolated rat liver parenchymal cells. J. Cell Biol., 1969, 43, p 506).
Suspension medium: 2.34 g Na HEPES, 2.0 g HSA fraction V, 0.4 g D-fructose, DMEM (1 L powder equivalent, Sigma; w/1 g.1^−1 glucose, w/Na pyruvate, w/o NaHCO3, w/o phenol red), made up to 1 L with Milli-Q water, pH to 7.4 with 1 M HCl. (Protein free suspension buffer is made omitting the 2.0 g HSA fraction V)
The capsule of a liver which has been perfused with digestion medium was cut open and the cells gently teased out into the medium. The cells were then passed through a mesh (approximately 250 μM) into a beaker containing 50 ml suspension medium. The mesh was rinsed through into the beaker with further suspension buffer to a final volume of 100 ml. The suspension was divided between two plastic 50 mL centrifuge tubes (pre-cooled on ice) and centrifuged at 50×g for 2 min at 4° C. The supernatants were decanted and the pellets re-suspended in protein free suspension buffer to the original volume. The centrifugation step was repeated and each pellet re-suspended in approximately 10 ml protein free suspension buffer. The suspensions were combined and the volume made up to 50 mL with protein free suspension buffer.
An aliquot of cell suspension (0.2 mL) was diluted with 0.2 ml protein free suspension buffer. To the diluted cells was added 0.2 mL trypan blue solution (0.4% w/v) followed by gentle mixing. After 1 min, a pasteur pipette was used to withdraw a sample and fill an Improved Neubauer Counting Chamber by capillary action. The cells were then counted (central square only) using an inverted microscope, viable cells being able to exclude the dye and non-viable cells being stained. The percentage of viable cells in the preparation was calculated thus: […]

human plasma proteins = assay: Measurement of plasma protein binding (PPB) by equilibrium dialysis; format: in vitro ADME; settings: human plasma; for Human plasma protein binding PPB (% free): equilibrium dialysis, 37° C., pH 7.4
Protocol: as §1, §2, §3, §4, §5, §6, §7, §8, §9, §10, §11

[3] = protein free suspension buffer, pH 7.4, 37° C., read-out: Human hepatocyte Intrinsic-clearance assay CLint
[4] = unit inferred, read-out: hepatic intrinsic clearance (Clint)

SMILES	fraction unbound at 18 h, 10 µM [1]	hepatocyte CLint at 1 µM [2, 3] [µL/min/1e6 cells]	free fraction in human plasma (in words) (human plasma proteins)	hepatocyte CLint at 1 µM [2, 4] [µL/min/1e6 cells]	Human plasma protein binding PPB (% free) (human plasma proteins)
Cc1cccc(CSc2nc(N[C@H](C)CO)cc(NS(=O)(=O)N3CCC3)n2)c1F [Example 40]	< 0.002	9	–	–	–
C[C@@H](Nc1cc(NS(=O)(=O)N2CCC2)nc(SCc2cccc(F)c2F)n1)[C@@H](O)CO [Example 1, N-(2-[(2,3-difluorobenzyl)thio]-6-{[(1R,2R)-2,3-dihydroxy-1-methylpropyl]amino}pyrimidin-4-yl)azetidine-1-sulfonamide]	0.019	2.1	favourable free fraction in human plasma	2.1	–
Cc1ccc(CSc2nc(N[C@H](C)CO)cc(NS(=O)(=O)N3CCC3)n2)c(F)c1C [Example 42]	–	–	–	–	<0.2
Cc1ccc(CSc2nc(N[C@H](C)CO)cc(NS(=O)(=O)N3CCC3)n2)c(F)c1C [Example 41]	–	12	–	–	0.6

Other lines, results leading:

fraction unbound at 18 h, 10 µM [1]	hepatocyte CLint at 1 µM [2, 3] [µL/min/1e6 cells]	free fraction in human plasma (in words) (human plasma proteins)	hepatocyte CLint at 1 µM [2, 4] [µL/min/1e6 cells]	Human plasma protein binding PPB (% free) (human plasma proteins)	SMILES
0.01	5.1	–	–	–	Cc1cccc(CSc2nc(N[C@H](C)CO)cc(NS(C)(=O)=O)n2)c1F [Example 39]
–	2.3	–	2.3	–	CS(=O)(=O)Nc1cc(NC(CO)CO)nc(SCc2ccccc2)n1 [Example 21]
